What was measured:
[1] = test system: PANC-02-03 (Pancreatic Carcinoma); assay: Bliss excess, mean over the matrix (fraction); higher = more synergy
In short: (§1)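 Bliss excess equals the observed combination effect minus the expected value EA + EB − EA·EB, where EA and EB are the effects of each agent alone. Combination Emax is the second-highest inhibition within the matrix. Inhibition was scaled from CellTiter-Glo 2.0 luminescence, with 0 set by vehicle wells and 1 by blank wells, after 72 hours of two-drug dosing of cells plated in 1536-well plates.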

[2] = test system: OV-90 (Ovarian Carcinoma); assay: as above
In short: as §1

[3] = test system: HCC-44 (Lung Adenocarcinoma); assay: as above
In short: as §1

[4] = test system: NCI-H1755 (Lung Adenocarcinoma); assay: as above
In short: as §1

[5] = test system: NKM-1 (Acute Myeloid Leukemia); assay: as above
In short: as §1

[6] = test system: EB-3 (Burkitt's Lymphoma); assay: as above
In short: as §1

[7] = test system: SK-MM-2 (Plasma Cell Myeloma); assay: as above
In short: as §1

[8] = test system: RMG-I (Ovarian Carcinoma); assay: as above
In short: as §1

[9] = test system: LAMA-84 (Chronic Myelogenous Leukemia); assay: as above
In short: as §1

[10] = test system: COLO-684 (Endometrial Carcinoma); assay: as above
In short: as §1

CHL-1 (Melanoma) [11] = assay: as above
In short: as §1

[12] = test system: LOUCY (T-Lymphoblastic Leukemia); assay: as above
In short: as §1

[13] = test system: KYSE-70 (Esophageal Squamous Cell Carcinoma); assay: as above
In short: as §1

[14] = test system: SW684 (Other Solid Carcinomas); assay: as above
In short: as §1

KYM-1 (Rhabdomyosarcoma) [15] = assay: as above
In short: as §1

[16] = test system: FLO-1 (Esophageal Adenocarcinoma); assay: as above
In short: as §1

[17] = test system: Becker (Low Grade Glioma); assay: as above
In short: as §1

[18] = test system: NCI-H810 (Non-Small Cell Lung Carcinoma); assay: as above
In short: as §1

[19] = test system: CML-T1 (Chronic Myelogenous Leukemia); assay: as above
In short: as §1

[20] = test system: PC-14 (Lung Adenocarcinoma); assay: as above
In short: as §1

[21] = test system: PANC-02-03 (Pancreatic Carcinoma); assay: combination Emax (second highest fraction inhibited in the dose matrix, 72 h); higher = more inhibition; extreme values may be limits of the assay
In short: as §1

[22] = test system: OV-90 (Ovarian Carcinoma); assay: as above
In short: as §1

[23] = test system: HCC-44 (Lung Adenocarcinoma); assay: as above
In short: as §1

[24] = test system: NCI-H1755 (Lung Adenocarcinoma); assay: as above
In short: as §1

[25] = test system: NKM-1 (Acute Myeloid Leukemia); assay: as above
In short: as §1

[26] = test system: EB-3 (Burkitt's Lymphoma); assay: as above
In short: as §1

[27] = test system: SK-MM-2 (Plasma Cell Myeloma); assay: as above
In short: as §1

[28] = test system: RMG-I (Ovarian Carcinoma); assay: as above
In short: as §1

[29] = test system: LAMA-84 (Chronic Myelogenous Leukemia); assay: as above
In short: as §1

[30] = test system: COLO-684 (Endometrial Carcinoma); assay: as above
In short: as §1

CHL-1 (Melanoma) [31] = assay: as above
In short: as §1

[32] = test system: LOUCY (T-Lymphoblastic Leukemia); assay: as above
In short: as §1

[33] = test system: KYSE-70 (Esophageal Squamous Cell Carcinoma); assay: as above
In short: as §1

[34] = test system: SW684 (Other Solid Carcinomas); assay: as above
In short: as §1

KYM-1 (Rhabdomyosarcoma) [35] = assay: as above
In short: as §1

[36] = test system: FLO-1 (Esophageal Adenocarcinoma); assay: as above
In short: as §1

[37] = test system: Becker (Low Grade Glioma); assay: as above
In short: as §1

[38] = test system: NCI-H810 (Non-Small Cell Lung Carcinoma); assay: as above
In short: as §1

[39] = test system: CML-T1 (Chronic Myelogenous Leukemia); assay: as above
In short: as §1

[40] = test system: PC-14 (Lung Adenocarcinoma); assay: as above
In short: as §1

C[C@@H](Oc1cc(-c2cnn(C3CCNCC3)c2)cnc1N)c1c(Cl)ccc(F)c1Cl [Crizotinib] + CC1=C(C(=CC=C1)Cl)NC(=O)C2=CN=C(S2)NC3=CC(=NC(=N3)C)N4CCN(CC4)CCO [Dasatinib] (first compound max 10 µM, 7x7, partner max 2 µM)
Bliss excess [1]: -0.0328
Bliss excess [2]: 0.0304
Bliss excess [3]: 0.101
Bliss excess [4]: 0.0591
Bliss excess [5]: -0.0197
Bliss excess [6]: -0.0181
Bliss excess [7]: -0.0416
Bliss excess [8]: 0.0034
Bliss excess [9]: 0.0136
Bliss excess [10]: -0.049
Bliss excess (CHL-1 (Melanoma) [11]): -0.0401
Bliss excess [12]: -0.0383
Bliss excess [13]: -0.0068
Bliss excess [14]: 0.0215
Bliss excess (KYM-1 (Rhabdomyosarcoma) [15]): -0.0389
Bliss excess [16]: 0.0436
Bliss excess [17]: 0.1
Bliss excess [18]: -0.0726
Bliss excess [19]: -0.0958
Bliss excess [20]: 0.0183
combination Emax [21]: 0.606
combination Emax [22]: 0.591
combination Emax [23]: 0.962
combination Emax [24]: 0.983
combination Emax [25]: 0.971
combination Emax [26]: 0.639
combination Emax [27]: 0.303
combination Emax [28]: 0.737
combination Emax [29]: 1
combination Emax [30]: 0.41
combination Emax (CHL-1 (Melanoma) [31]): 0.349
combination Emax [32]: 0.674
combination Emax [33]: 0.423
combination Emax [34]: 0.758
combination Emax (KYM-1 (Rhabdomyosarcoma) [35]): 0.917
combination Emax [36]: 1
combination Emax [37]: 0.648
combination Emax [38]: 0.244
combination Emax [39]: 0.987
combination Emax [40]: 1

O=C(c1cc(Cc2n[nH]c(=O)c3ccccc23)ccc1F)N1CCN(C(=O)C2CC2)CC1 [Olaparib] + CC1(C)CCC(CN2CCN(c3ccc(C(=O)NS(=O)(=O)c4ccc(NCC5CCOCC5)c([N+](=O)[O-])c4)c(Oc4cnc5[nH]ccc5c4)c3)CC2)=C(c2ccc(Cl)cc2)C1 [Venetoclax] (first compound max 10 µM, 7x7, partner max 1 µM)
Bliss excess [1]: -0.0386
Bliss excess [2]: -0.0377
Bliss excess [3]: -0.0278
Bliss excess [4]: -0.0395
Bliss excess [5]: 0.257
Bliss excess [6]: -0.0328
Bliss excess [7]: 0.0141
Bliss excess [8]: -0.0398
Bliss excess [9]: -0.003
Bliss excess [10]: -0.0346
Bliss excess (CHL-1 (Melanoma) [11]): -0.0355
Bliss excess [12]: 0.0365
Bliss excess [13]: -0.039
Bliss excess [14]: -0.0606
Bliss excess (KYM-1 (Rhabdomyosarcoma) [15]): -0.0388
Bliss excess [16]: -0.0251
Bliss excess [17]: -0.0134
Bliss excess [18]: -0.0541
Bliss excess [19]: 0.0685
Bliss excess [20]: -0.0071
combination Emax [21]: 0.107
combination Emax [22]: 0.204
combination Emax [23]: 0.177
combination Emax [24]: 0.126
combination Emax [25]: 0.976
combination Emax [26]: 0.162
combination Emax [27]: 1
combination Emax [28]: 0.282
combination Emax [29]: 0.211
combination Emax [30]: 0.259
combination Emax (CHL-1 (Melanoma) [31]): 0.171
combination Emax [32]: 1
combination Emax [33]: 0.0967
combination Emax [34]: 0.141
combination Emax (KYM-1 (Rhabdomyosarcoma) [35]): 0.446
combination Emax [36]: 0.209
combination Emax [37]: 0.198
combination Emax [38]: 0.271
combination Emax [39]: 0.946
combination Emax [40]: 0.142

C=CCn1c(=O)c2cnc(Nc3ccc(N4CCN(C)CC4)cc3)nc2n1-c1cccc(C(C)(C)O)n1 [AZD1775] + CCc1c2c(nc3ccc(O)cc13)-c1cc3c(c(=O)n1C2)COC(=O)[C@]3(O)CC [SN-38] (first compound max 1 µM, partner max 0.3 µM)
Bliss excess [1]: 0.0042
Bliss excess [2]: -0.101
Bliss excess [3]: 0.0458
Bliss excess [4]: 0.0139
Bliss excess [5]: 0.0008
Bliss excess [6]: -0.0467
Bliss excess [7]: 0.0271
Bliss excess [8]: -0.0848
Bliss excess [9]: -0.0202
Bliss excess [10]: -0.0122
Bliss excess (CHL-1 (Melanoma) [11]): 0.0518
Bliss excess [12]: 0.0229
Bliss excess [13]: -0.0358
Bliss excess [14]: 0.0144
Bliss excess (KYM-1 (Rhabdomyosarcoma) [15]): -0.0535
Bliss excess [16]: 0.0261
Bliss excess [17]: -0.0094
Bliss excess [18]: -0.0454
Bliss excess [19]: -0.002
Bliss excess [20]: -0.0001
combination Emax [21]: 0.706
combination Emax [22]: 0.537
combination Emax [23]: 0.935
combination Emax [24]: 0.827
combination Emax [25]: 0.997
combination Emax [26]: 0.884
combination Emax [27]: 0.794
combination Emax [28]: 0.524
combination Emax [29]: 0.993
combination Emax [30]: 0.906
combination Emax (CHL-1 (Melanoma) [31]): 0.833
combination Emax [32]: 0.995
combination Emax [33]: 0.599
combination Emax [34]: 0.493
combination Emax (KYM-1 (Rhabdomyosarcoma) [35]): 0.958
combination Emax [36]: 0.897
combination Emax [37]: 0.903
combination Emax [38]: 0.634
combination Emax [39]: 1
combination Emax [40]: 0.929

From the supplement of paper PMC11061612
